Read-outs that look alike come from different tables or passages of the source.
Test system: C. parvum strain UGA1
Assay: C. parvum growth inhibition assay (Nluc luminescence in HCT-8 cells)
Type: cell-based, Cryptosporidium parvum
Details: Cryptosporidium parvum; for inhibition at 1 µM / inhibition at 10 µM: HCT-8; for inhibition at 1 µM: read-out: % inh @ 1 uM C. parvum; for inhibition at 10 µM: read-out: % inh @ 10 uM C. parvum; for EC50: HCT-8, 48 h, C. parvum growth inhibition in HCT-8 cells, 48 hours, 6 concentrations 10-0.04 μM
[1] = single point inhibition at 1 uM
[2] = single point inhibition at 10 uM
[3] = single point inhibition @ 10 uM

SMILES | inhibition at 1 µM [1] [%] | inhibition at 10 µM [2] [%] | EC50 [µM] | inhibition at 1 µM (single point inhibition @ 1 uM) [%] | inhibition at 10 µM [3] [%]
CC(=O)Nc1cc2c(cn1)cc(C#N)n2C [Example 245, N-(2-cyano-1-methyl-1H-pyrrolo[3,2-c]pyridin-6-yl)acetamide] | 0 to 33 | 0 to 33 |  |  | 
O=C(Nc1cc2[nH]c(-c3cnc(C4CC4)o3)cc2cn1)C1CC1 [Example 61, N-(2-(2-cyclopropyloxazol-5-yl)-1H-pyrrolo[3,2-c]pyridin-6-yl)cyclopropanecarboxamide] |  |  | > 1 |  | 
N#Cc1cc2cnc(Nc3cccc(-c4nc[nH]n4)c3)cc2[nH]1 [Example 145, 6-(3-(1H-1,2,4-triazol-3-yl)phenylamino)-1H-pyrrolo[3,2-c]pyridine-2-carbonitrile] |  |  |  | 0 to 33 | 67 to 100
CC(=O)Nc1cc2[nH]c(-c3ccncc3)cc2cn1 [Example 181, N-(2-(pyridin-4-yl)-1H-pyrrolo[3,2-c]pyridin-6-yl)acetamide] |  |  |  | 0 to 33 | 67 to 100
CCOc1nccc(-c2cc3cnc(NC(=O)C4C5CCCC54)cc3[nH]2)n1 (centres unmarked) [Example 58, N-(2-(2-ethoxypyrimidin-4-yl)-1H-pyrrolo[3,2-c]pyridin-6-yl)bicyclo[3.1.0]hexane-6-carboxamide] |  |  | > 1 | 0 to 33 | 67 to 100
Cc1cc(-c2cc3cnc(NC4CCOCC4)cc3n2C)ccn1 [Example 59, 1-methyl-2-(2-methylpyridin-4-yl)-N-(tetrahydro-2H-pyran-4-yl)-1H-pyrrolo[3,2-c]pyridin-6-amine] |  |  | > 1 |  | 
Cc1cccc(-c2cc3cnc(NC(=O)C4CC4)cc3n2C)n1 [Example 69, N-(1-methyl-2-(6-methylpyridin-2-yl)-1H-pyrrolo[3,2-c]pyridin-6-yl)cyclopropanecarboxamide] |  |  | > 1 |  | 
Cn1cc(C(=O)Nc2cc3[nH]c(-c4cnc[nH]4)cc3cn2)cn1 [Example 82, N-(2-(1H-imidazol-5-yl)-1H-pyrrolo[3,2-c]pyridin-6-yl)-1-methyl-1H-pyrazole-4-carboxamide] |  |  | > 1 | 0 to 33 | 33 to 66
COCCOc1ccc(C(=O)Nc2cc3[nH]c(-c4ccnc(C)c4)cc3cn2)cc1OC [Example 295, 3-methoxy-4-(2-methoxyethoxy)-N-(2-(2-methylpyridin-4-yl)-1H-pyrrolo[3,2-c]pyridin-6-yl)benzamide] | 0 to 33 | 0 to 33 |  |  | 
CC(C)n1cc(C(=O)Nc2cc3c(cn2)cc(-c2ccnc(NCC4CC4)n2)n3C)cn1 [Example 131, N-(2-(2-(cyclopropylmethylamino)pyrimidin-4-yl)-1-methyl-1H-pyrrolo[3,2-c]pyridin-6-yl)-1-isopropyl-1H-pyrazole-4-carboxmaide] |  |  |  | 0 to 33 | 67 to 100
O=C(Nc1cc2[nH]c(-c3ccncc3)cc2cn1)C1CCCCC1 [Example 217, N-(2-(pyridin-4-yl)-1H-pyrrolo[3,2-c]pyridin-6-yl)cyclohexanecarboxamide] | 0 to 33 | 33 to 66 |  |  | 
Cc1cc(-c2cc3cnc(NC4CCOC4)cc3[nH]2)ccn1 (stereo in doubt) [Example 52, (S)-2-(2-methylpyridin-4-yl)-N-(tetrahydrofuran-3-yl)-1H-pyrrolo[3,2-c]pyridin-6-amine] |  |  | > 1 |  | 
Cc1cc2cnc(NC(=O)c3cnn(C)c3)cc2[nH]1 [Example 285, 1-methyl-N-(2-methyl-1H-pyrrolo[3,2-c]pyridin-6-yl)-1H-pyrazole-4-carboxamide] | 0 to 33 | 0 to 33 |  |  | 
Cc1cc(-c2[nH]c3cc(NC4CCOCC4)ncc3c2C(F)(F)F)ccn1 [Example 375, 2-(2-methylpyridin-4-yl)-N-(tetrahydro-2H-pyran-4-yl)-3-(trifluoromethyl)-1H-pyrrolo[3,2-c]pyridin-6-amine] |  |  | > 1 |  | 
CC(Oc1nccc(-c2cc3cnc(NC(=O)c4cnn(C)c4)cc3[nH]2)n1)C(F)(F)F (stereo in doubt) [Example 314, (R)-1-methyl-N-(2-(2-(1,1,1-trifluoropropan-2-yloxy)pyrimidin-4-yl)-1H-pyrrolo[3,2-c]pyridin-6-yl)-1H-pyrazole-4-carboxamide] | 0 to 33 | 0 to 33 |  |  | 
Cn1cc(C(=O)Nc2cc3c(cn2)cc(-c2ccnc(C(F)(F)F)n2)n3C)cn1 [Example 200, 1-methyl-N-(1-methyl-2-(2-(trifluoromethyl)pyrimidin-4-yl)-1H-pyrrolo[3,2-c]pyridin-6-yl)-1H-pyrazole-4-carboxamide] | 33 to 66 | 67 to 100 |  |  | 
CNc1cc2c(cn1)cc(-c1ccnc(NCC(F)(F)F)n1)n2C [Example 390, N,1-dimethyl-2-(2-(2,2,2-trifluoroethylamino)pyrimidin-4-yl)-1H-pyrrolo[3,2-c]pyridin-6-amine] |  |  | > 1 |  | 
Cn1cc(-c2cc3cnc(NC4CCOCC4)cc3n2C)cn1 [Example 223, 1-methyl-2-(1-methyl-1H-pyrazol-4-yl)-N-(tetrahydro-2H-pyran-4-yl)-1H-pyrrolo[3,2-c]pyridin-5-amine] | 0 to 33 | 33 to 66 |  |  | 
COc1nccc(-c2cc3cnc(NC(=O)CC4COC4)cc3[nH]2)n1 [Example 227, N-(2-(2-methoxypyrimidin-4-yl)-1H-pyrrolo[3,2-c]pyridin-6-yl)-2-(oxetan-3-yl)acetamide] | 0 to 33 | 33 to 66 |  |  | 
COc1nccc(-c2cc3cnc(NC(=O)CC4COC4)cc3n2C)n1 [Example 87, N-(2-(2-methoxypyrimidin-4-yl)-1-methyl-1H-pyrrolo[3,2-c]pyridin-6-yl)-2-(oxetan-3-yl)acetamide] |  |  | > 1 | 33 to 66 | 0 to 33
Cc1cn(C)nc1C(=O)Nc1cc2[nH]c(-c3ccncc3)cc2cn1 [Example 281, 1,4-dimethyl-N-(2-(pyridin-4-yl)-1H-pyrrolo[3,2-c]pyridin-6-yl)-1H-pyrazole-3-carboxamide] | 0 to 33 | 0 to 33 |  |  | 
COc1ccc(C(=O)Nc2cc3[nH]c(-c4ccnc(C)c4)cc3cn2)cc1OC [Example 296, 3,4-dimethoxy-N-(2-(2-methylpyridin-4-yl)-1H-pyrrolo[3,2-c]pyridin-6-yl)benzamide] | 0 to 33 | 0 to 33 |  |  | 
CC(C)(O)c1cc(-c2cc3cnc(Nc4cccc(-c5nc[nH]n5)c4)cc3[nH]2)ccn1 [Example 215, 2-(4-(6-(3-(1H-1,2,4-triazol-3-yl)phenylamino)-1H-pyrrolo[3,2-c]pyridin-2-yl)pyridin-2-yl)propan-2-ol] | 33 to 66 | 67 to 100 |  |  | 
COc1nccc(-c2cc3cnc(NC(=O)C4C5CCCCC54)cc3n2C)n1 (centres unmarked) [Example 211, N-(2-(2-methoxypyrimidin-4-yl)-1-methyl-1H-pyrrolo[3,2-c]pyridin-6-yl)bicyclo[4.1.0]heptane-7-carboxamide] | 0 to 33 | 67 to 100 |  |  | 
O=C(Nc1cc2[nH]c(-c3ccnc(OCC(F)F)n3)cc2cn1)c1cnn(CC2CCCO2)c1 (stereo in doubt) [Example 234, (S)-N-(2-(2-(2,2-difluoroethoxy)pyrimidin-4-yl)-1H-pyrrolo[3,2-c]pyridin-6-yl)-1-((tetrahydrofuran-2-yl)methyl)-1H-pyrazole-4-carboxamdie] | 33 to 66 | 33 to 66 |  |  | 

— US20240124444A1 (Celgene Corporation, priority 2020, published 2024)
